In brackets after ≈: the same amount, converted by molar mass. Like-named read-outs stand apart in the source and are kept apart here.
Tests used:
Format in all cases: cell-based
[1] = test system: Enterococcus faecalis ATCC29212; experiment: MIC, microbroth dilution; details: rifS, BHI Broth, 37° C., read-out: MIC
Method in brief: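 Minimum Inhibitory Concentrations against Enterococcus faecalis were measured by microbroth dilution following NCCLS guidelines (National Committee for Clinical Laboratory Standards, 2000). The bacteria were grown in BHI Broth. Unlike the standard protocol, every growth incubation was carried out at 37° C.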

[2] = test system: Mycobacterium smegmatis ATCC700084; experiment: MIC, microbroth dilution
Method in brief: (§1)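 Media varied by organism: cation-adjusted Mueller-Hinton for S. aureus strains, NAD- and hematin-supplemented BHI for H. influenzae, Middlebrook with ADC for M. smegmatis.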

[3] = test system: Staphylococcus aureus ATCC29213; experiment: MIC, microbroth dilution; details: rifS, Cation-Adjusted Mueller-Hinton Broth, 37° C., read-out: MIC
Method in brief: as §1

[4] = test system: Staphylococcus aureus ATCC29213 rpoB^D417Y; experiment: microbe, parasite or virus in culture
Method: (§2) Representative compounds were assayed for antimicrobial activity as follows: Minimum Inhibitory Concentrations (“MICs”) were determined by the microbroth dilution method as per NCCLS guidelines (National Committee for Clinical Laboratory Standards, 2000), except that all growth incubations were conducted at 37° C. Bacterial cultures were tested in the following bacteriological media: S. aureus, S. epidermidis, and E. coli in Cation-Adjusted Mueller-Hinton Broth, S. pneumoniae in THY Broth supplemented with 1 mg/mL catalase under 5% CO2 atmosphere, S. pyogenes in THY Broth, E. faecalis in BHI Broth, H. influenzae in BHI Broth supplemented with 0.75 μL of 1 mg/mL NAD and 150 μL of 1 mg/ml hematin per 5 mL, and M smegmatis in Middlebrook Broth plus ADC Enrichment.

[5] = test system: Staphylococcus aureus ATCC29213 rpoB^H418Y; experiment: microbe, parasite or virus in culture
Method: as §2

[6] = test system: Escherichia coli ATCC25922; experiment: MIC, microbroth dilution; details: rifS, Cation-Adjusted Mueller-Hinton Broth, 37° C.
[7] = test system: Haemophilus influenzae ATCC10211; experiment: MIC, microbroth dilution
Method in brief: as §1

[8] = test system: Staphylococcus epidermidis ATCC12228; experiment: MIC, microbroth dilution; details: rifS, Cation-Adjusted Mueller-Hinton Broth, 37° C.
Method in brief: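 MICs by microbroth dilution per NCCLS guidelines, all incubations at 37 °C. S. aureus in cation-adjusted Mueller-Hinton broth; H. influenzae in BHI broth with NAD and hematin; M. smegmatis in Middlebrook broth plus ADC enrichment.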

[9] = test system: Streptococcus pneumoniae ATCC6303; experiment: MIC, microbroth dilution; details: rifS, THY Broth supplemented with 1 mg/mL catalase under 5% CO2, 37° C.
[10] = test system: Streptococcus pyogenes ATCC19615; experiment: MIC, microbroth dilution; details: rifS, THY Broth, 37° C.
[11] = MIC, summary over rifampin-susceptible Gram-positive strains; details: read-out: MICs
Method: as §2

[12] = test system: H. influenzae ATCC 10211 and E. coli ATCC 25922; experiment: MIC, summary over Gram-negative bacteria
Method: as §2

[13] = Mycolicibacterium smegmatis, ATCC700084, rifS, Middlebrook Broth plus ADC Enrichment, 37° C., read-out: MIC

Structure (SMILES)	MIC [1]	MIC [2, 13]	MIC [3]	further results
COc1cncc(NC(=O)c2ccc(N3CCN(C(=O)O[C@H]4[C@H](C)[C@H](O)[C@H](C)[C@@H](O)[C@@H](C)/C=C/C=C(/C)C(=O)NC5=C(N6CCOCC6)C(=O)c6c(c(O)c(C)c7c6C(=O)[C@@](C)(O/C=C/[C@H](OC)[C@H]4C)O7)C5=O)CC3)c(C(F)(F)F)c2)c1 [Example 53, 25-O-Desacetyl-(carbonyl-N-(5-methoxy-pyridin-3-yl)-4-piperazin-1-yl-3-trifluoromethyl-benzamide) 3-morpholino rifamycin S]	0.25 to 62 µg/mL (≈ 0.218 to 54.1 µM)	0.063 to 31 µg/mL	0.002 to 1.95 µg/mL (≈ 0.00175 to 1.7 µM)	–
COc1c(N2CCC(NC3CCN(C(=O)O[C@H]4[C@H](C)[C@H](O)[C@H](C)[C@@H](O)[C@@H](C)/C=C/C=C(/C)C(=O)NC5=C(N6CCOCC6)C(=O)c6c(c(O)c(C)c7c6C(=O)[C@@](C)(O/C=C/[C@H](OC)[C@H]4C)O7)C5=O)CC3)C2)c(F)cc2c(=O)c(C(=O)O)cn(C3CC3)c12 (stereo partly drawn) [Example 56]	0.25 to 62 µg/mL (≈ 0.207 to 51.3 µM)	0.063 to 31 µg/mL	0.002 to 1.95 µg/mL (≈ 0.00165 to 1.61 µM)	–
CO[C@H]1/C=C/O[C@@]2(C)Oc3c(C)c(O)c4c(c3C2=O)C(=O)C(N2CCOCC2)=C(NC(=O)/C(C)=C\C=C\[C@H](C)[C@H](O)[C@@H](C)[C@@H](O)[C@@H](C)[C@H](OC(=O)N2CCC(N3CCN(c5cc6c(cc5F)c(=O)c(C(=O)O)cn6C5CC5)CC3)CC2)[C@@H]1C)C4=O [Example 57]	0.25 to 62 µg/mL (≈ 0.212 to 52.6 µM)	0.063 to 31 µg/mL	0.002 to 1.95 µg/mL (≈ 0.0017 to 1.65 µM)	–
COc1c(N2CCC(NC3CCN(C(=O)O[C@H]4[C@H](C)[C@H](O)[C@H](C)[C@@H](O)[C@@H](C)/C=C/C=C(/C)C(=O)NC5=C(N6CCOCC6)C(=O)c6c(c(O)c(C)c7c6C(=O)[C@@](C)(O/C=C/[C@H](OC)[C@H]4C)O7)C5=O)CC3)CC2)c(F)cc2c(=O)c(C(=O)O)cn(C3CC3)c12 [Example 58]	0.25 to 62 µg/mL (≈ 0.204 to 50.7 µM)	0.063 to 31 µg/mL	0.002 to 1.95 µg/mL (≈ 0.00163 to 1.59 µM)	–
COc1c(N2CCCC(NC3CCN(C(=O)O[C@H]4[C@H](C)[C@H](O)[C@H](C)[C@@H](O)[C@@H](C)/C=C/C=C(/C)C(=O)NC5=C(N6CCOCC6)C(=O)c6c(c(O)c(C)c7c6C(=O)[C@@](C)(O/C=C/[C@H](OC)[C@H]4C)O7)C5=O)CC3)C2)c(F)cc2c(=O)c(C(=O)O)cn(C3CC3)c12 (stereo partly drawn) [Example 59]	0.25 to 62 µg/mL (≈ 0.204 to 50.7 µM)	0.063 to 31 µg/mL	0.002 to 1.95 µg/mL (≈ 0.00163 to 1.59 µM)	–
COc1c(N2CCN(C3CCN(C(=O)O[C@H]4[C@H](C)[C@H](O)[C@H](C)[C@@H](O)[C@@H](C)/C=C/C=C(/C)C(=O)NC5=C(N6CCOCC6)C(=O)c6c(c(O)c(C)c7c6C(=O)[C@@](C)(O/C=C/[C@H](OC)[C@H]4C)O7)C5=O)CC3)CC2)c(F)cc2c(=O)c(C(=O)O)cn(C3CC3)c12 [Example 60]	0.25 to 62 µg/mL (≈ 0.207 to 51.3 µM)	0.063 to 31 µg/mL	0.002 to 1.95 µg/mL (≈ 0.00165 to 1.61 µM)	–
COc1c(N2CCN(C3CCN(C(=O)O[C@H]4[C@H](C)[C@H](O)[C@H](C)[C@@H](O)[C@@H](C)/C=C/C=C(/C)C(=O)NC5=C(N6CCOCC6)C(=O)c6c(c(O)c(C)c7c6C(=O)[C@@](C)(O/C=C/[C@H](OC)[C@H]4C)O7)C5=O)C3)CC2)c(F)cc2c(=O)c(C(=O)O)cn(C3CC3)c12 (stereo partly drawn) [Example 62]	0.25 to 62 µg/mL (≈ 0.209 to 51.9 µM)	0.063 to 31 µg/mL	0.002 to 1.95 µg/mL (≈ 0.00167 to 1.63 µM)	–
CO[C@H]1/C=C/O[C@@]2(C)Oc3c(C)c(O)c4c(c3C2=O)C(=O)C(N2CCOCC2)=C(NC(=O)/C(C)=C\C=C\[C@H](C)[C@H](O)[C@@H](C)[C@@H](O)[C@@H](C)[C@H](OC(=O)NCC(=O)NC2CCN(c3c(F)cc5c(=O)c(C(=O)O)cn(C6CC6)c5c3Cl)C2)[C@@H]1C)C4=O (stereo partly drawn) [Example 63]	0.25 to 62 µg/mL (≈ 0.21 to 52.2 µM)	0.063 to 31 µg/mL	0.002 to 1.95 µg/mL (≈ 0.00168 to 1.64 µM)	–
COc1c(N2CCN(C(=O)CNC(=O)O[C@H]3[C@H](C)[C@H](O)[C@H](C)[C@@H](O)[C@@H](C)/C=C/C=C(/C)C(=O)NC4=C(N5CCOCC5)C(=O)c5c(c(O)c(C)c6c5C(=O)[C@@](C)(O/C=C/[C@H](OC)[C@H]3C)O6)C4=O)CC2)c(F)cc2c(=O)c(C(=O)O)cn(C3CC3)c12 [Example 64]	0.25 to 62 µg/mL (≈ 0.211 to 52.4 µM)	0.063 to 31 µg/mL	0.002 to 1.95 µg/mL (≈ 0.00169 to 1.65 µM)	–
COc1c(N2CCN(C(=O)C3CN(C(=O)O[C@H]4[C@H](C)[C@H](O)[C@H](C)[C@@H](O)[C@@H](C)/C=C/C=C(/C)C(=O)NC5=C(N6CCOCC6)C(=O)c6c(c(O)c(C)c7c6C(=O)[C@@](C)(O/C=C/[C@H](OC)[C@H]4C)O7)C5=O)C3)C(C)C2)c(F)cc2c(=O)c(C(=O)O)cn(C3CC3)c12 (stereo partly drawn) [Example 65]	0.25 to 62 µg/mL (≈ 0.204 to 50.7 µM)	0.063 to 31 µg/mL	0.002 to 1.95 µg/mL (≈ 0.00163 to 1.59 µM)	–
COc1c(N2CCN(C(=O)C3CN(C(=O)O[C@H]4[C@H](C)[C@H](O)[C@H](C)[C@@H](O)[C@@H](C)/C=C/C=C(/C)C(=O)NC5=C(N6CCOCC6)C(=O)c6c(c(O)c(C)c7c6C(=O)[C@@](C)(O/C=C/[C@H](OC)[C@H]4C)O7)C5=O)C3)CC2)c(F)cc2c(=O)c(C(=O)O)cn(C3CC3)c12 [Example 66]	0.25 to 62 µg/mL (≈ 0.207 to 51.3 µM)	0.063 to 31 µg/mL	0.002 to 1.95 µg/mL (≈ 0.00165 to 1.61 µM)	–
CO[C@H]1/C=C/O[C@@]2(C)Oc3c(C)c(O)c4c(c3C2=O)C(=O)C(N2CCOCC2)=C(NC(=O)/C(C)=C\C=C\[C@H](C)[C@H](O)[C@@H](C)[C@@H](O)[C@@H](C)[C@H](OC(=O)NC2CCN(c3c(F)cc5c(=O)c(C(=O)O)cn(C6CC6)c5c3Cl)C2)[C@@H]1C)C4=O (stereo partly drawn) [Example 67, 25-O-Desacetyl-(carbonyl-N-7-(3-amino-pyrrolidin-1-yl)-8-chloro-1-cyclopropyl-6-fluoro-4-oxo-1,4-dihydro-quinoline-3-carboxylic acid) 3-morpholino rifamycin S]	0.25 to 62 µg/mL (≈ 0.221 to 54.8 µM)	0.063 to 31 µg/mL	0.002 to 1.95 µg/mL (≈ 0.00177 to 1.72 µM)	–
CO[C@H]1/C=C/O[C@@]2(C)Oc3c(C)c(O)c4c(c3/C2=N/O)C(=O)C(N2CCOCC2)=C(NC(=O)/C(C)=C\C=C\[C@H](C)[C@H](O)[C@@H](C)[C@@H](O)[C@@H](C)[C@H](OC(=O)NC2CCN(c3c(F)cc5c(=O)c(C(=O)O)cn(C6CC6)c5c3Cl)C2)[C@@H]1C)C4=O (stereo partly drawn) [Example 68]	0.25 to 62 µg/mL (≈ 0.218 to 54.1 µM)	0.063 to 31 µg/mL	0.002 to 1.95 µg/mL (≈ 0.00175 to 1.7 µM)	–
CO[C@H]1/C=C/O[C@@]2(C)Oc3c(C)c(O)c4c(c3/C2=N/O)C(=O)C(N2CCOCC2)=C(NC(=O)/C(C)=C\C=C\[C@H](C)[C@H](O)[C@@H](C)[C@@H](O)[C@@H](C)[C@H](OC(=O)NCCN(C)C)[C@@H]1C)C4=O [Example 69]	0.25 to 62 µg/mL (≈ 0.288 to 71.4 µM)	0.063 to 31 µg/mL	0.002 to 1.95 µg/mL (≈ 0.0023 to 2.25 µM)	–
CO[C@H]1/C=C/O[C@@]2(C)Oc3c(C)c(O)c4c(O)c(c(/C=N/N5CCN(C)CC5)c(O)c4c3C2=O)NC(=O)/C(C)=C\C=C\[C@H](C)[C@H](O)[C@@H](C)[C@@H](O)[C@@H](C)[C@H](OC(C)=O)[C@@H]1C [rifampin]	0.98 µg/mL (≈ 1.19 µM)	64 µg/mL	0.008 µg/mL (≈ 0.00972 µM)	MIC ([4]; Staphylococcus aureus, ATCC29213): > 64 µg/mL; MIC ([4]; rifR, Cation-Adjusted Mueller-Hinton Broth, 37° C.): >64 µg/mL; MIC ([5]; ATCC29213, rifR, Cation-Adjusted Mueller-Hinton Broth, 37° C.): 7.8 µg/mL (≈ 9.48 µM); MIC ([5]; ATCC29213, text, rifampin-resistant strain S. aureus ATCC 29213 RpoB^H418Y): 8 µg/mL (≈ 9.72 µM); MIC [6]: 16 µg/mL (≈ 19.4 µM); MIC [7]: 0.24 µg/mL (≈ 0.292 µM); MIC ([2]; mycobacterial strain M smegamatis ATCC 700084): 64 µg/mL (≈ 77.8 µM); MIC [8]: 0.03 µg/mL (≈ 0.0365 µM); MIC [9]: 0.061 µg/mL (≈ 0.0741 µM); MIC [10]: 0.013 µg/mL (≈ 0.0158 µM); MIC [11]: 0.03 to 1.3 µg/mL (≈ 0.0365 to 1.58 µM); MIC [12]: 0.24 to 16 µg/mL (≈ 0.292 to 19.4 µM)
